Test results: ChEMBL document CHEMBL6092211, “Discovery and evaluation of novel SHIP-1 inhibitors” (Bioorg Med Chem, 2024)

What was measured:
[1] = target: T1, Phosphatidylinositol 3,4,5-trisphosphate 5-phosphatase 1 (Homo sapiens, UniProt Q92835); assay: Inhibition of recombinant SHIP-1 (unknown origin) using PtdIns(3,4,5)P3 as substrate incubated for 30 mins by malachite green solution based analysis
T1 sequence (Q92835 whole entry): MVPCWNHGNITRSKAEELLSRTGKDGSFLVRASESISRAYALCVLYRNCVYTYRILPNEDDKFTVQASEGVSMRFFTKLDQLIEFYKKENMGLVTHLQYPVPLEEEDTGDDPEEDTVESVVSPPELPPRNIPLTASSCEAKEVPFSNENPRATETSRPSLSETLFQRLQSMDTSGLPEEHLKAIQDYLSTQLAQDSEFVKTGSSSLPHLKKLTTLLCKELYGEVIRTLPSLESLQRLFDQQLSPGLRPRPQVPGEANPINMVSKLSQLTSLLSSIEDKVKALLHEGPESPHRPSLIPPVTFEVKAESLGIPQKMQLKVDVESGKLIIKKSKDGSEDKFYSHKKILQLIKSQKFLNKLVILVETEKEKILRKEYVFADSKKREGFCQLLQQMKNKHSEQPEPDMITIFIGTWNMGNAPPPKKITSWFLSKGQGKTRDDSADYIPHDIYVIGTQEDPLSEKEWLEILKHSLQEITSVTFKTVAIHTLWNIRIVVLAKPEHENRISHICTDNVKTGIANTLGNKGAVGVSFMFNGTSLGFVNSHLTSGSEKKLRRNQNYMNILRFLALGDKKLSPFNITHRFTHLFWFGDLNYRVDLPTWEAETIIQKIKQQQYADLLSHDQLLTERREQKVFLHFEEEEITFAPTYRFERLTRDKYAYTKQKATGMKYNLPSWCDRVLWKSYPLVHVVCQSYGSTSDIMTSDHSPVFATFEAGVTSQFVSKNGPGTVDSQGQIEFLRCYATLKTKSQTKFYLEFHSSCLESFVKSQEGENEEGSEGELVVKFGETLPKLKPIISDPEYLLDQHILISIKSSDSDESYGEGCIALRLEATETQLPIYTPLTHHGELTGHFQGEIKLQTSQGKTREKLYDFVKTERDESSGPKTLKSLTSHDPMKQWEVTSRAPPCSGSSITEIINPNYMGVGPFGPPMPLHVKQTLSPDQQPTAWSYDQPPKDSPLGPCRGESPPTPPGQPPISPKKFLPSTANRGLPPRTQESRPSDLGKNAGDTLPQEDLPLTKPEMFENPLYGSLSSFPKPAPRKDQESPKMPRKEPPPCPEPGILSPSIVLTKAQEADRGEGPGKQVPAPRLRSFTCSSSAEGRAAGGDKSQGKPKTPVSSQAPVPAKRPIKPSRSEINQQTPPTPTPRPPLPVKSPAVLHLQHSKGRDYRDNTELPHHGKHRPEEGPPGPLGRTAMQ

[2] = target: T2, Phosphatidylinositol 3,4,5-trisphosphate 5-phosphatase 2 (Homo sapiens, UniProt O15357); assay: Inhibition of recombinant SHIP-2 (unknown origin) using PtdIns(3,4,5)P3 as substrate incubated for 30 mins by malachite green solution based analysis
T2 sequence (O15357 whole entry): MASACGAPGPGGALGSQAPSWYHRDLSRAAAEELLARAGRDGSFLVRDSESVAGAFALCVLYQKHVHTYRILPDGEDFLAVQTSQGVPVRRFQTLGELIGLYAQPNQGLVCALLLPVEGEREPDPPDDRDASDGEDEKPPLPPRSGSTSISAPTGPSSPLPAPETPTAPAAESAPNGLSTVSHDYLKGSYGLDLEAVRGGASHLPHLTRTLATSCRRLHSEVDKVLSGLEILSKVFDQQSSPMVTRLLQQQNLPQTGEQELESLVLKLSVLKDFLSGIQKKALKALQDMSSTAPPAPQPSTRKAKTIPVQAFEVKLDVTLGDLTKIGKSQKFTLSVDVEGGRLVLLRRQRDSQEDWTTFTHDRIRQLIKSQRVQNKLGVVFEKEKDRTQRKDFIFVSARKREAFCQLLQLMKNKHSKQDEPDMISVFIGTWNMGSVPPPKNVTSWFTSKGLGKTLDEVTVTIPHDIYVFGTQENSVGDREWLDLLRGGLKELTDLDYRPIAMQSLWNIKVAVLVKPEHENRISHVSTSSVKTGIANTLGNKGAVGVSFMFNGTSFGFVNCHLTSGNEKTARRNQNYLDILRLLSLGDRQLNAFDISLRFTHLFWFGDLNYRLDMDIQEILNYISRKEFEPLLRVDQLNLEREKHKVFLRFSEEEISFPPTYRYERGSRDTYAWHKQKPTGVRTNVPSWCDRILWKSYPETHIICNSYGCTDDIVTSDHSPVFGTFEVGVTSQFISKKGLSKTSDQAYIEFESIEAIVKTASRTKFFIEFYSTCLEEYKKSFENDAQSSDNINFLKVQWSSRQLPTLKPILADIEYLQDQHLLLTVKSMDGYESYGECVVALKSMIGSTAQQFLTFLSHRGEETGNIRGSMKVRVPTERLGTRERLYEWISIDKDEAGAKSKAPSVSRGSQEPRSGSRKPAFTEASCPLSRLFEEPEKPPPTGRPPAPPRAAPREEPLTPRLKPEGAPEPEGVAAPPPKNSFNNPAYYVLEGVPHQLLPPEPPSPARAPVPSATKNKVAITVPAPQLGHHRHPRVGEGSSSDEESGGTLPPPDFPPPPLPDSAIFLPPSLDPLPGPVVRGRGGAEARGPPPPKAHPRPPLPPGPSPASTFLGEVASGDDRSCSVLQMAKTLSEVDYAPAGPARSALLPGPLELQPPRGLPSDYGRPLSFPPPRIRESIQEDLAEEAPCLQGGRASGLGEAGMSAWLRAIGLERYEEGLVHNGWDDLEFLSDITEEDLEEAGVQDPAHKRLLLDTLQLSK

[3] = target: T1, Phosphatidylinositol 3,4,5-trisphosphate 5-phosphatase 1; assay: Inhibition of human SHIP-1 (397 to 715 residues) catalytic domain expressed in Rosetta DE3 BL21 cells using 1-(1,2-dioctanoylphosphatidyl) inositol-3,4,5-trisphosphate as substrate by malachite green based spectramax microplate reader analysis
[4] = target: T2, Phosphatidylinositol 3,4,5-trisphosphate 5-phosphatase 2; assay: Inhibition of human SHIP-2 (420 to 732 residues) catalytic domain expressed in Rosetta DE3 BL21 cells using -(1,2-dioctanoylphosphatidyflinosito1-3,4,5-trisphosphate as substrate by malachite green based spectramax microplate reader analysis
[5] = target: T1, Phosphatidylinositol 3,4,5-trisphosphate 5-phosphatase 1; assay: Inhibition of SHIP-1 (unknown origin) by malachite green solution based […] analysis
[6] = target: T1, Phosphatidylinositol 3,4,5-trisphosphate 5-phosphatase 1; assay: Inhibition of SHIP-1 (unknown origin) using PtdIns(3,4,5)P3 as substrate by malachite green solution based […] analysis
[7] = Cytotoxicity against human HMC3 cells assessed as cell count incubated for 48 hrs by Hoechst-33342 staining based analysis; format: toxicity
[8] = target: T1, Phosphatidylinositol 3,4,5-trisphosphate 5-phosphatase 1; assay: Competitive inhibition of human SHIP-1 (397 to 715 residues) catalytic domain expressed in Rosetta DE3 BL21 cells assessed as inhibition constant by Lineweaver-Burk plot analysis; format: cell-based
HMC3 [9] = assay: cells; conditions: Homo sapiens, HMC3, 48 h
HMC3 [10] = assay: cells; conditions: Homo sapiens, HMC3, 48 h; remark: listed apart in the source

Row | SMILES | IC50 [3] [µM] | also measured
1 | O[C@H](c1cc(-c2ccccc2)nc2c1ccc1ccccc12)[C@@H]1CCCCN1 |  | IC50 [1]: 30 µM; IC50 [2]: 30 µM
2 | N#CC1=C2N=C(N)c3ccccc3N2C2=C(C(=O)CC(c3cccs3)C2)C1c1cccnc1 (stereo not given) | 86.8 | IC50 [4]: > 200 µM
3 | N#CC1=C2N=C(N)c3ccccc3N2C2=C(C(=O)CCC2)C1c1cccnc1 (stereo not given) | 65.5 | 
4 | O[C@H](c1cc(C23CC4CC(CC(C4)C2)C3)nc2c(Cl)cc(Cl)cc12)[C@@H]1CCCCN1 |  | IC50 [1]: 63 µM; IC50 [2]: 35 µM
5 | Cc1oc(-c2ccccc2Cl)nc1Cn1cccc1C1=NC(c2ccccc2)CO1 (stereo not given) | 46.6 | 
6 | N#CC1=C2N=C(N)c3ccccc3N2C2=C(C(=O)CCC2)C1c1cccc([N+](=O)[O-])c1 (stereo not given) | 36.7 | 
7 | N#CC1=C2N=C(N)c3ccccc3N2C2=C(C(=O)CCC2)C1c1nc2ccccc2s1 (stereo not given) | > 40 | 
8 | CC(=O)C1=C(C)Nc2sc(C(=O)c3ccc(Cl)c(Cl)c3)c(N)c2C1c1cccnc1 (stereo not given) | 46.7 | 
9 | CSc1ccc2c(c1)c(CCN)c(C)n2Cc1ccccc1Cl |  | IC50 [1]: 500 µM
10 | N#CC1=C2N=C(N)c3ccccc3N2C2=C(C(=O)CCC2)C1c1ccc(F)c(F)c1 (stereo not given) | > 40 | 
11 | C[C@@]12CCC[C@H]1[C@@H]1CC[C@H]3C[C@H](N)[C@H](N)C[C@]3(C)[C@H]1CC2 |  | IC50 [5]: 6 µM
12 | N#CC1=C2N=C(N)c3ccccc3N2C2=C(C(=O)CCC2)C1c1ccc(Cl)cc1Cl (stereo not given) | 39 | 
13 | CC(C)CCC[C@@H](C)[C@H]1CC[C@H]2[C@@H]3CC[C@H]4C[C@H](N)CC[C@]4(C)[C@H]3CC[C@]12C |  | IC50 [6]: 13.9 µM
14 | N#CC1=C2N=C(N)c3ccccc3N2C2=C(C(=O)CCC2)C1c1cc2ccccc2s1 (stereo not given) | 40.2 | 
15 | C[C@@]12CCC[C@H]1[C@@H]1CC[C@H]3C[C@H](N)CC[C@]3(C)[C@H]1CC2 |  | IC50 [5]: 16 µM

Second part, led by results:

Row | IC50 [3] [µM] | SMILES | also measured
16 | 23.4 | N#CC1=C2N=C(N)c3ccccc3N2C2=C(C(=O)CCC2)C1c1cc(Br)ccc1F (stereo not given) | 
17 | 28.2 | N#CC1=C2N=C(N)c3ccccc3N2C2=C(C(=O)CCC2)C1c1cc2ccccc2o1 (stereo not given) | 
18 | 17.7 | CC1(C)CC(=O)C2=C(C1)N1C(=C(C#N)C2c2ccc(-c3ccccc3)cc2)N=C(N)c2ccccc21 (stereo not given) | 
19 | 10.2 | CC(C)c1ccc(C2C(C#N)=C3N=C(N)c4ccccc4N3C3=C2C(=O)CC(C)(C)C3)cc1 (stereo not given) | 
20 | 33.6 | CC(C)c1ccc(C2C(C#N)=C3N=C(O)c4ccccc4N3C3=C2C(=O)CCC3)cc1 (stereo not given) | 
21 | 13.2 | CC(C)c1ccc(C2C(C#N)=C3N=C(N)c4ccccc4N3C3=C2C(=O)CCC3)cc1 (stereo not given) | 
22 | 15.4 | N#CC1=C2N=C(N)c3ccccc3N2C2=C(C(=O)CCC2)C1c1cccc(Cl)c1 (stereo not given) | 
23 | 6.1 | N#CC1=C2N=C(N)c3ccccc3N2C2=C(C(=O)CCC2)C1c1ccc(-c2ccccc2)cc1 (stereo not given) | IC50 at 48 h [7]: 19.9 µM; Ki [8]: 3.2 µM; EC50 (HMC3 [9]): 2 µM; EC50 (HMC3 [10]): 20 µM
